From patent publication US10821115B2, “Compounds that inhibit Mcl-1 protein” (priority 2017, dated 2020)
Read-outs that look alike come from different tables or passages of the source.

How the values were obtained:
[1] = molecular target: recombinant human Mcl-1 (residues 171-327) / Bim interaction (Homo sapiens (Human), UniProt Q07820); assay: biochemical; assay type: binding; settings: read-out: Mcl-1 HTRF IC50
[2] = test system: human multiple myeloma cell line, OPM-2; assay: Cell viability assay (OPM-2 10 FBS), CellTiter-Glo; assay type: cell-based
Method in brief: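 Serially diluted test compounds are incubated 16 h with cells (3000/well) in RPMI 1640 supplemented with 10% FBS. Viability is then measured by luminescence and IC50 calculated by 4-parameter logistic fit.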

[3] = TR-FRET, Mcl-1(171-327) / biotin-Bim (51-76)
[4] = Homo sapiens, OPM-2, 16 h, read-out: OPM-2 10% FBS IC50 IP, OPM-2 cells, 10% FBS, 16 h, CellTiter-Glo
[5] = read-out: OPM-2 10% FBS IC50 IP, OPM-2 cells, 10% FBS, 16 h, CellTiter-Glo

Sequence of recombinant human Mcl-1 (residues 171-327) / Bim interaction (Q07820 171-327): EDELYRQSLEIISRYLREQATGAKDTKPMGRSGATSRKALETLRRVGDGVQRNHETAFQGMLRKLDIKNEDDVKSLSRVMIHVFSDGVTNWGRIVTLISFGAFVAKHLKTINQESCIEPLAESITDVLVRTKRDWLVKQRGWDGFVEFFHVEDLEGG

Which IC50 [1, 3] does the source give for `C[C@@H]1[C@@H](C)C/C=C/[C@@](CO)(OCC(F)(F)F)[C@@H]2CC[C@H]2CN2C[C@@]3(CCCc4cc(Cl)ccc43)COc3ccc(cc32)C(=O)NS1(=O)=O` (single isomer, unassigned) [Example 100604] here?
The IC50 was 0.723 nM.

What about the IC50 [2, 4] of the same compound?
The IC50 was 4110 nM.

For `CC[C@]1(CO)/C=C/C[C@H](C)[C@@H](C)S(=O)(=O)NC(=O)c2ccc3c(c2)N(C[C@@H]2CC[C@H]21)C[C@@]1(CCCc2cc(Cl)ccc21)CO3` (single isomer, unassigned) [Example 100605], which IC50 [1, 3] is on record?
Its IC50 is 3.25 nM.

What about the IC50 [2, 4] of the same compound?
Its IC50 is 7950 nM.

Which results are given for `CCOC1(CN2CCN(C(C)C)CC2)/C=C/C[C@H](C)[C@@H](C)S(=O)(=O)NC(=O)c2ccc3c(c2)N(C[C@@H]2CC[C@H]21)C[C@@]1(CCCc2cc(Cl)ccc21)CO3` (stereo in doubt) [Example 115, (1S,3′R,6′R,7′R,8′E,11′S,12′R)-6-chloro-7′-ethoxy-11′,12′-dimethyl-7′-((4-(1-methylethyl)-1-piperazinyl)methyl)-3,4-dihydro-2H,15′H-spiro[naphthalene-1,22′-[20]oxa[13]thia[1,14]diazatetracyclo [14.7.2.0~3,6~.0~19,24~]pentacosa[8,16,18,24]tetraen]-15′-one 13′,13′-dioxide]?
IC50 ([1]; 0.1 nM Mcl-1(171-327), 0.05 nM biotin-Bim (51-76)): 1.37 nM; IC50 ([2]; Homo sapiens, OPM-2, 16 h, read-out: OPM-2 10% FBS IC50 IP, OPM-2 cells, 10% FBS, 16 h incubation): 686 nM

With `C[C@@H]1[C@@H](C)CC2C=CC[C@@](O)(C2)[C@@H]2CC[C@H]2CN2C[C@@]3(CCCc4cc(Cl)ccc43)COc3ccc(cc32)C(=O)NS1(=O)=O` (stereo in doubt) [Example 100058, (1S,3′R,6′R,7′R,11′S,13′S,14′R)-6-chloro-7′-hydroxy-13′,14′-dimethyl-3,4-dihydro-2H,17′H-spiro[naphthalene-1,24′-[22]oxa[15]thia[1,16]diazapentacyclo [16.7.2.1~7,11~.0~3,6~.0~21,26~]octacosa [9,18,20,26]tetraen]-17′-one 15′,15′-dioxide] as the compound, how does the IC50 [1, 3] read?
Its IC50 is 1.76 nM.

And the IC50 [2, 4]?
The IC50 was 3360 nM.

What does the source list for `C[C@@H]1[C@@H](C)C/C=C/[C@@](O)(C[S@@+](C)[O-])[C@@H]2CC[C@H]2CN2C[C@@]3(CCCc4cc(Cl)ccc43)COc3ccc(cc32)C(=O)NS1(=O)=O` (stereo in doubt) [Example 100074]?
IC50 [1, 3]: 0.731 nM; IC50 [2, 4]: 3020 nM

What does the source list for `C[C@@H]1[C@@H](C)C/C=C/[C@@](O)(C[S@@+](C)[O-])[C@@H]2CC[C@H]2CN2C[C@@]3(CCCc4cc(Cl)ccc43)COc3ccc(cc32)C(=O)NS1(=O)=O` (stereo in doubt) [Example 100075]?
IC50 [1, 3]: 0.671 nM; IC50 [2, 5]: 1820 nM

What does the source list for `C=CC[C@@]1(O)/C=C/C[C@H](C)[C@@H](C)S(=O)(=O)NC(=O)c2ccc3c(c2)N(C[C@@H]2CC[C@H]21)C[C@@]1(CCCc2cc(Cl)ccc21)CO3` (stereo in doubt) [Example 100127]?
IC50 [1, 3]: 0.175 nM; IC50 [2, 5]: 108 nM

For `C[C@@H]1[C@@H](C)C/C=C/[C@@](O)(CCCO)[C@@H]2CC[C@H]2CN2C[C@@]3(CCCc4cc(Cl)ccc43)COc3ccc(cc32)C(=O)NS1(=O)=O` (stereo in doubt) [Example 100128], which IC50 [1, 3] is on record?
Its IC50 is 0.089 nM.

And the IC50 [2, 4]?
Its IC50 is 217 nM.

For `C[C@@H]1[C@@H](C)CCC[C@@]2(C[C@H](C)C(=O)O2)[C@@H]2CC[C@H]2CN2C[C@@]3(CCCc4cc(Cl)ccc43)COc3ccc(cc32)C(=O)NS1(=O)=O` (stereo in doubt) [Example 100129], which IC50 [1, 3] is on record?
The IC50 was 2.4 nM.

And the IC50 [2, 4]?
Its IC50 is 4870 nM.

With `C[C@@H]1[C@@H](C)C/C=C/[C@]2(CCCO2)[C@@H]2CC[C@H]2CN2C[C@@]3(CCCc4cc(Cl)ccc43)COc3ccc(cc32)C(=O)NS1(=O)=O` (stereo in doubt) [Example 100132] as the compound, how does the IC50 [1, 3] read?
The IC50 was 0.543 nM.

What about the IC50 [2, 4] of the same compound?
Its IC50 is 675 nM.

Which results are given for `CO[C@@]1(CO)CCC[C@H](C)[C@@H](C)S(=O)(=O)NC(=O)c2ccc3c(c2)N(C[C@@H]2CC[C@H]21)C[C@@]1(CCCc2cc(Cl)ccc21)CO3` (stereo in doubt) [Example 100133, (1S,3′R,6′R,7′S,11′S,12′R)-6-chloro-7′-(hydroxymethyl)-7′-methoxy-11′,12′-dimethyl-3,4-dihydro-2H,15′H-spiro[naphthalene-1,22′-[20]oxa[13]thia[1,14]diazatetracyclo [14.7.2.0~3,6~.0~19,24~]pentacosa[16,18,24]rien]-15′-one 13′,13′-dioxide]?
IC50 [1, 3]: 0.885 nM; IC50 [2, 5]: 984 nM

With `COC[C@]1(O)CCC[C@H](C)[C@@H](C)S(=O)(=O)NC(=O)c2ccc3c(c2)N(C[C@@H]2CC[C@H]21)C[C@@]1(CCCc2cc(Cl)ccc21)CO3` (stereo in doubt) [Example 100149, (1S,3′R,6′R,7′S,11′S,12′R)-6-chloro-7′-hydroxy-7′-(methoxymethyl)-11′,12′-dimethyl-3,4-dihydro-2H,15′H-spiro[naphthalene-1,22′-[20]oxa[13]thia[1,14]diazatetracyclo [14.7.2.0~3,6~.0~19,24~]pentacosa[16,18,24]rien]-15′-one 13′,13′-dioxide] as the compound, how does the IC50 [1, 3] read?
The IC50 was 0.214 nM.

And the IC50 [2, 4]?
Its IC50 is 186 nM.

With `C[C@@H]1[C@@H](C)CCC[C@@](O)(CC(=O)N2CCOC2=O)[C@@H]2CC[C@H]2CN2C[C@@]3(CCCc4cc(Cl)ccc43)COc3ccc(cc32)C(=O)NS1(=O)=O` (stereo in doubt) [Example 100154, (1S,3′R,6′R,7′R,11′S,12′R)-6-chloro-7′-hydroxy-11′,12′-dimethyl-7′-(2-oxo-2-(2-oxo-1,3-oxazolidin-3-yl)ethyl)-3,4-dihydro-2H,15′H-spiro[naphthalene-1,22′-[20]oxa[13]thia[1,14]diazatetracyclo [14.7.2.0~3,6~.0~19,24~]pentacosa[16,18,24]rien]-15′-one 13′,13′-dioxide] as the compound, how does the IC50 [1, 3] read?
Its IC50 is 1.72 nM.

What about the IC50 [2, 5] of the same compound?
The IC50 was 1070 nM.

Which results are given for `C[C@@H]1[C@@H](C)CCC[C@](O)(CS(C)(=O)=O)[C@@H]2CC[C@H]2CN2C[C@@]3(CCCc4cc(Cl)ccc43)COc3ccc(cc32)C(=O)NS1(=O)=O` (stereo in doubt) [Example 100161]?
IC50 [1, 3]: 0.355 nM; IC50 [2, 4]: 757 nM

For `C[C@@H]1[C@@H](C)CCC[C@]2(CO2)[C@@H]2CC[C@H]2CN2C[C@@]3(CCCc4cc(Cl)ccc43)COc3ccc(cc32)C(=O)NS1(=O)=O` (stereo in doubt) [Example 100164], which IC50 [1, 3] is on record?
The IC50 was 0.917 nM.

What about the IC50 [2, 4] of the same compound?
The IC50 was 967 nM.

Which results are given for `CO[C@@]1(CO)CCC[C@H](C)[C@@H](C)S(=O)(=O)NC(=O)c2ccc3c(c2)N(C[C@@H]2CC[C@H]21)C[C@@]1(CCCc2cc(Cl)ccc21)CO3` (stereo in doubt) [Example 100184, (1S,3′R,6′R,7′S,11′S,12′R)-6-chloro-7′-(hydroxymethyl)-7′-methoxy-11′,12′-dimethyl-3,4-dihydro-2H,15′H-spiro[naphthalene-1,22′-[20]oxa[13]thia[1,14]diazatetracyclo [14.7.2.0~3,6~.0~19,24~]pentacosa[16,18,24]rien]-15′-one 13′,13′-dioxide]?
IC50 [1, 3]: 0.717 nM; IC50 [2, 5]: 179 nM

How did the IC50 [1, 3] turn out when `C[C@@H]1[C@@H](C)CCC[C@](O)(COCCN(C)C)[C@@H]2CC[C@H]2CN2C[C@@]3(CCCc4cc(Cl)ccc43)COc3ccc(cc32)C(=O)NS1(=O)=O` (stereo in doubt) [Example 100196] was run?
Its IC50 is 0.461 nM.

What about the IC50 [2, 5] of the same compound?
Its IC50 is 358 nM.
